Measurements published in US20210155814A1, “ACTIVE-ENERGY-RAY-CURABLE AQUEOUS COMPOSITION, ACTIVE-ENERGY-RAY-CURABLE AQUEOUS INK, STORED CONTAINER, IMAGE FORMING APPARATUS, IMAGE FORMING METHOD, CURED PRODUCT, AND DECORATED PRODUCT” (priority 2019, published 2021).

How the values were obtained:
[1] = test system: Female mice; assay: Skin sensitization test by local lymph node assay (LLNA) method, SI value of materials; format: in vivo; conditions: for SI (stimulation index, LLNA): test substance 50.0 w/v % in acetone:olive oil 4:1, 25 microliters per auricle, once a day for three days, BrdU intake by ELISA
Text: The present disclosure can provide an active-energy-ray-curable aqueous composition excellent in scratch resistance and storage stability and safe in skin sensitizing potential. Safety in skin sensitizing potential means that a SI value, which is a degree of sensitizing potential, is 3 or lower in a skin sensitization test by the LLNA method.
The “LLNA method” mentioned above is a skin sensitization test stipulated in OECD (Organisation for Economic Co-operation and Development) Test Guidelines. As described in literatures (e.g., “Functional Material”, September 2005 issue, Vol. 25, No. 9, p. 55), LLNA method judges that a stimulation index (SI value) of 3 or lower as a degree of skin sensitizing potential is non-problematic in terms of skin sensitizing potential.
The SI value was measured in the manner described below by a skin sensitization test according to a local lymph node assay (LLNA) method.
As the positive control substance, α-hexyl cinnamaldehyde (HCA, obtained from Wako Pure Chemical Industries, Ltd.) was used.
As the medium, a mixture liquid containing acetone (obtained from Wako Pure Chemical Industries, Ltd.) and olive oil (obtained from Fudimi Pharmaceutical Co., Ltd.) in a volume ratio of 4:1 (acetone:olive oil) was used.
Female mice were acclimated to the test substance, the positive control, and the medium control for 8 days including 6-day quarantine. No abnormalities were found in all of the animals during the quarantine/acclimation period.
Based on the body weights measured 2 days before the initiation of sensitization, the animals were separated into […] (4 mice/group) by the body weight stratified random sampling method in a manner that the body weight of each individual was within ±20% of the average body weight of all individuals. Each of the animals was 8 weeks old to 9 weeks old at the time of the initiation of sensitization.
The test substance was weighed out in a volumetric flask, and the volume of the test substance was adjusted to 1 mL with addition of the medium. The prepared liquid was poured into a light-blocked airtight container (formed of glass).
HCA was accurately weighed out in an amount of about 0.25 g, and adjusted to 1 mL with addition of the medium, to prepare a 25.0 w/v % liquid. The prepared liquid was poured into a light-blocked airtight container (formed of glass).
5-Bromo-2′-deoxyuridine (BrdU, obtained from Nacalai Tesque, Inc.) (200 mg) was accurately weighed out in a volumetric flask, and dissolved in saline (obtained from Otsuka Pharmaceutical Co., Ltd.) added in the flask by ultrasonic irradiation. Subsequently, the resultant was adjusted to a volume of 20 mL, to prepare a 10 mg/mL liquid (BrdU preparation liquid). The prepared liquid was sterilized by filtration through a sterilized filtration filter and poured into a sterilized container.
The preparation liquids of each test substance and the positive control substance, and the medium were each applied to both auricles of the animals by 25 microliters each. A micropipetter was used for the application. This treatment was performed once a day for three consecutive days.
About 48 hours after the final sensitization, the BrdU preparation liquid was intraperitoneally administered once by 0.5 mL per animal.
About 24 hours after the BrdU administration, the animals were subjected to euthanasia, and their auricular lymph nodes were removed. Surrounding tissues of the auricular lymph nodes were removed, and the auricular lymph nodes on both sides were collectively weighted. The average and the standard error of the weights of the auricular lymph nodes were calculated per group. After the mass measurement, the auricular lymph nodes were cryopreserved per individual in a biomedical freezer set to −20 degrees C.
After the auricular lymph nodes were returned to room temperature, the auricular lymph nodes were ground with addition of saline and suspended in the saline. […]

[2] = format: cell-based; conditions: OECD TG471, ±S9 mix
Protocol: (§1) As a safety test, AMES test was performed according to OECD test guideline TG471 (±S9 mix), and the result was negative. Oral toxicity was tested according to OECD test guideline TG423. […] Skin stimulation was tested according to OECD test guideline TG404, and the result was PII=0.5. Skin sensitizing potential was tested according to OECD test guideline TG442B.

[3] = Oral toxicity according to OECD test guideline TG423; format: in vivo
Protocol: as §1

[4] = format: in vivo; conditions: OECD TG404
Protocol: as §1

In the case of `C=CC(=O)NC(O)C(O)NC(=O)C=C` (stereo not drawn) [Example B2-7], the “SI (stimulation index, LLNA)” value [1] was “Tokyo Chemical Industry Co., Ltd., (product No. D2864), SI = 1.01”.
For `C=CC(=O)N(C)CC(=O)OCC` [Example A1-2, N-acryloyl-N-methylglycineethyl ester], the “SI (stimulation index, LLNA)” value [1] was “(see Synthesis example 2) SI = 1.02”.
In the case of `C=CC(=O)N(C)CCCCCCN(C)C(=O)C=C` [Example B2-4], the “SI (stimulation index, LLNA)” value [1] was “(see Synthesis example 12) SI = 1.58”.
With `C=CC(=O)N(C)C(C)C(=O)OC` (stereo not drawn) [Example A1-4, N-acryloyl-N-methylalaninemethyl ester] the “SI (stimulation index, LLNA)” value [1] was “(see Synthesis example 4) SI = 1.12”.
With `C=CC(=O)NCNC(=O)C=C` [Example B2-5] the “SI (stimulation index, LLNA)” value [1] was “Tokyo Chemical Industry Co., Ltd., (product No. M2877), SI = 1.08”.
In the case of `C=CC(=O)NCCN(CCN(CCNC(=O)C=C)C(=O)C=C)C(=O)C=C` [Example B2-11], the “SI (stimulation index, LLNA)” value [1] was “FUJIFILM Corporation, FOM-03009, SI = 1.52”.
In the case of `C=CC(=O)NCCNC(=O)C=C` [Example B2-6], the “SI (stimulation index, LLNA)” value [1] was “Tokyo Chemical Industry Co., Ltd., (product No. E1086), SI = 1.23”.
With `C=CC(=O)NCCN(CCNC(=O)C=C)C(=O)C=C` [Example B2-9] the “SI (stimulation index, LLNA)” value [1] was “FUJIFILM Corporation, FOM-03007, SI = 1.44”.
In the case of `C=C(C)C(=O)OCCO` [Example A2-1, 2-hydroxyethyl methacrylate, reference compound], the “SI (stimulation index, LLNA)” value [1] was “Tokyo Chemical Industry Co., Ltd., “2-hydroxyethyl methacrylate” SI = 1.26”.
With `C=CC(=O)NCCCOCCOCCOCCCNC(=O)C=C` [Example B2-10] the “SI (stimulation index, LLNA)” value [1] was “FUJIFILM Corporation, FOM-03008, SI = 1.24”.
For `C=CC(=O)N(C)CCN(C)C(=O)C=C` [Example B2-1], the “SI (stimulation index, LLNA)” value [1] was “(see Synthesis example 9) SI = 1.20”.
For `C=CC(=O)OC1CC2CCC1(C)C2(C)C` (stereo not drawn) [Example A2-2, Isobornyl acrylate, reference compound], the “SI (stimulation index, LLNA)” value [1] was “Osaka Organic Chemical Industry Ltd., “Isobornyl acrylate”, SI = 8.30”.
In the case of `C=CC(=O)N(C)CCOC(C)=O` [Example A1-8, N-(2-Acetyloxyethyl)-N-methyl acrylamide], the “SI (stimulation index, LLNA)” value [1] was “(see Synthesis example 13) SI = 1.10”.
For `C=C(C)C(=O)OCC(COC(=O)C(=C)C)OC(C)=O` [Example B1-6, 2-acetyl-1,3-glycerol dimethacrylate], the “SI (stimulation index, LLNA)” value [1] was “(see Synthesis example 8) SI = 1.40”.
In the case of `C=C(C)C(=O)OCC(CC)(COC(=O)C(=C)C)COC(=O)C(=C)C` [Example B1-3], the “SI (stimulation index, LLNA)” value [1] was “Shin-Nakamura Chemical Co., Ltd., “TMPT”, SI = 1.03”.
With `C=CC(=O)N(C)CC(=O)OC` [Example A1-1, N-acryloyl-N-methylglycinemethyl ester] the AMES test result [2] was “negative”, the “SI value (skin sensitizing potential)” value ([1]; OECD test guideline TG442B) was 1.00 and the “SI (stimulation index, LLNA)” value [1] was “(see Synthesis example 1) SI = 1.00”. For the same compound, the “Fatal cases in oral toxicity test” value ([3]; OECD TG423) was “none of six cases was a fatal case”, the LD50 ([3]; in vivo, 2000 mg/kg, OECD TG423, oral) was ≥ 2000 mg/kg and the “PII (skin stimulation)” value [4] was 0.5.
For `C=CC(=O)N(CC)CCN(CC)C(=O)C=C` [Example B2-2], the “SI (stimulation index, LLNA)” value [1] was “(see Synthesis example 10) SI = 1.33”.
With `C=CC(=O)N1CCC(C(=O)OCC)CC1` [Example A1-7, ethyl N-acryloylpiperidine-4-carboxylate] the “SI (stimulation index, LLNA)” value [1] was “(see Synthesis example 7) SI = 1.70”.
In the case of `C=C(C)C(=O)OCCOCCOC(=O)C(=C)C` [Example B1-1], the “SI (stimulation index, LLNA)” value [1] was “Shin-Nakamura Chemical Co., Ltd., “2G”, SI = 1.05”.
